Assay results as given in DBAASP.
Values after ≈ are worked out from the molar mass of the structure shown. Values joined by “and” are separate entries in the source; they are usually repeats but may differ in a detail not shown here. Identical values can stand only once.

What was measured:
Test in all cases: ≥ marks a high value that may be exact or a test limit, other limits are often not marked, values filed in µg/mL are converted to µM
[1] = test system: Escherichia coli 780
[2] = test system: Staphylococcus aureus 75
[3] = test system: Pseudomonas aeruginosa 50
[4] = test system: Acinetobacter baumannii 9931
[5] = test system: Staphylococcus aureus 113
[6] = test system: Acinetobacter baumannii ATCC 19606
[7] = test system: Staphylococcus aureus ATCC 25923
[8] = test system: Klebsiella pneumoniae ATCC 700603
[9] = test system: Staphylococcus epidermidis ATCC 12228
[10] = test system: Bacillus subtilis ATCC 23857
[11] = test system: Pseudomonas aeruginosa ATCC 27853
[12] = test system: Pseudomonas aeruginosa ATCC 9027
[13] = test system: Staphylococcus aureus ATCC 29213
[14] = test system: Lacticaseibacillus rhamnosus 1.0936
[15] = test system: Salmonella enterica subsp. enterica serovar Typhimurium ATCC 14028
[16] = test system: Salmonella enterica subsp. enterica serovar Pullorum C79-13
[17] = test system: Escherichia coli ATCC 25922
[18] = test system: Lacticaseibacillus rhamnosus 1.0911
[19] = test system: Escherichia coli K99
[20] = test system: Salmonella enterica subsp. enterica serovar Typhimurium C77-31
[21] = test system: Lactiplantibacillus plantarum 8014
[22] = test system: Escherichia coli UB1005
[23] = test system: Escherichia coli K88
[24] = test system: Lacticaseibacillus rhamnosus 1.0385
[25] = test system: Staphylococcus aureus ATCC 43300
[26] = test system: Lacticaseibacillus rhamnosus 7469
[27] = test system: Enterococcus faecalis ATCC 29212
[28] = test system: Salmonella enterica subsp. enterica serovar Choleraesuis CVCC 503
[29] = test system: Staphylococcus aureus
[30] = test system: Streptococcus agalactiae
[31] = test system: Staphylococcus aureus ATCC 6538
[32] = test system: Candida albicans ATCC 36232
[33] = test system: Micrococcus luteus ATCC 9341

Row | MIC [7] | MIC [9] | MIC [11] | MIC [13] | MIC [14] | MIC [15] | MIC [16] | MIC [17] | MIC [18] | MIC [19] | MIC [20] | MIC [22] | MIC [23] | MIC [24] | MIC [25] | MIC [26] | MIC [27] | MIC [29] | SMILES | MIC [21] | MIC [28] | also measured
1 | 8 µM and 16 µM | 4 µM (≈ 10.6 µg/mL) | 16 µM (≈ 42.6 µg/mL) | 8 µM (≈ 21.3 µg/mL) | – | – | – | – | – | – | – | – | – | – | – | – | – | – | NC(=O)[C@H](Cc1c[nH]c2ccccc12)NC(=O)[C@H](CCCN=C(N)N)NC(=O)[C@H](Cc1c[nH]c2ccccc12)NC(=O)[C@H](Cc1c[nH]c2ccccc12)NC(=O)[C@H](CCCN=C(N)N)NC(=O)[C@H](Cc1c[nH]c2ccccc12)NC(=O)[C@H](Cc1c[nH]c2ccccc12)NC(=O)[C@H](CCCN=C(N)N)NC(=O)[C@H](Cc1c[nH]c2ccccc12)NC(=O)[C@H](Cc1c[nH]c2ccccc12)NC(=O)[C@H](CCCN=C(N)N)NC(=O)[C@H](Cc1c[nH]c2ccccc12)NC(=O)[C@H](Cc1c[nH]c2ccccc12)NC(=O)[C@H](CCCN=C(N)N)NC(=O)[C@@H](N)Cc1c[nH]c2ccccc12 [WRWWRWWRWWRWWRW] | – | – | MIC [1]: 16 µM (≈ 42.6 µg/mL); MIC [2]: 8 µM (≈ 21.3 µg/mL); MIC [3]: ≥ 32 µM; MIC [4]: 16 µM (≈ 42.6 µg/mL); MIC [5]: 4 µM (≈ 10.6 µg/mL); MIC [6]: 16 µM (≈ 42.6 µg/mL); MIC [8]: 16 µM (≈ 42.6 µg/mL); MIC [10]: 4 µM (≈ 10.6 µg/mL); MIC [12]: 16 µM (≈ 42.6 µg/mL)
2 | > 64 µM | – | > 64 µM | > 64 µM | ≥ 64 µM | > 64 µM | ≥ 64 µM | > 64 µM | ≥ 64 µM | ≥ 64 µM | ≥ 64 µM | ≥ 64 µM | ≥ 64 µM | ≥ 64 µM | > 64 µM | ≥ 64 µM | – | – | C[C@H](NC(=O)[C@H](C)NC(=O)[C@H](Cc1c[nH]c2ccccc12)NC(=O)[C@H](Cc1c[nH]c2ccccc12)NC(=O)[C@H](Cc1c[nH]c2ccccc12)NC(=O)[C@@H](N)CCCN=C(N)N)C(N)=O [RWWWAA] | ≥ 64 µM | – | –
3 | – | > 64 µM | – | > 64 µM | – | 8 µM (≈ 16.5 µg/mL) | ≥ 64 µM | 8 µM (≈ 16.5 µg/mL) | – | – | 16 µM (≈ 33.1 µg/mL) | 16 µM (≈ 33.1 µg/mL) | – | – | > 64 µM | – | > 64 µM | > 64 µM | CC(C)[C@H](N)C(=O)N[C@@H](CS)C(=O)N[C@@H](CCCN=C(N)N)C(=O)N[C@@H](CCCCN)C(=O)N1CCC[C@H]1C(=O)N[C@H](C(=O)N[C@H](C(=O)N[C@@H](CS)C(=O)N[C@@H](CCCN=C(N)N)C(=O)N[C@@H](CCCCN)C(=O)N1CCC[C@H]1C(=O)N[C@H](C(=O)N[C@H](C(=O)N[C@@H](CS)C(=O)N[C@@H](CCCN=C(N)N)C(=O)N[C@@H](CCCCN)C(=O)N1CCC[C@H]1C(=O)N[C@H](C(N)=O)C(C)C)C(C)C)C(C)C)C(C)C)C(C)C [VCRKPVVCRKPVVCRKPV] | – | ≥ 64 µM | MIC [30]: ≥ 64 µM

More lines, now with the values behind:

Row | SMILES | MIC [7] | MIC [9] | MIC [11] | MIC [13] | MIC [14] | MIC [15] | MIC [16] | MIC [17] | MIC [18] | MIC [19] | MIC [20] | MIC [22] | MIC [23] | MIC [24] | MIC [25] | MIC [26] | MIC [27] | MIC [29] | MIC [21] | MIC [28] | also measured
4 | CC[C@H](C)[C@H](N)C(=O)N[C@H](C(=O)N[C@@H](CS)C(=O)N[C@@H](CCCN=C(N)N)C(=O)N[C@@H](CCCCN)C(=O)N1CCC[C@H]1C(=O)N[C@H](C(=O)N[C@H](C(=O)N[C@@H](CS)C(=O)N[C@@H](CCCN=C(N)N)C(=O)N[C@@H](CCCCN)C(=O)N1CCC[C@H]1C(=O)N[C@H](C(=O)N[C@H](C(=O)N[C@@H](CS)C(=O)N[C@@H](CCCN=C(N)N)C(=O)N[C@@H](CCCCN)C(=O)N1CCC[C@H]1C(=O)N[C@H](C(=O)N[C@H](C(=O)N[C@@H](CS)C(=O)N[C@@H](CCCN=C(N)N)C(=O)N[C@@H](CCCCN)C(=O)N1CCC[C@H]1C(=O)N[C@H](C(=O)N[C@H](C(N)=O)[C@@H](C)CC)[C@@H](C)CC)[C@@H](C)CC)[C@@H](C)CC)[C@@H](C)CC)[C@@H](C)CC)[C@@H](C)CC)[C@@H](C)CC)[C@@H](C)CC [IICRKPIICRKPIICRKPIICRKPII] | – | 16 µM (≈ 49.4 µg/mL) | – | 32 µM and 64 µM | – | 2 µM (≈ 6.17 µg/mL) | 8 µM (≈ 24.7 µg/mL) | – | – | – | 2 µM (≈ 6.17 µg/mL) | 1 µM (≈ 3.09 µg/mL) | – | – | 16 µM (≈ 49.4 µg/mL) | – | 32 µM (≈ 98.8 µg/mL) | 16 µM (≈ 49.4 µg/mL) | – | 4 µM (≈ 12.3 µg/mL) | MIC [30]: 16 µM (≈ 49.4 µg/mL)
5 | C[C@@H]1NC(=O)[C@@H](N)CSSC[C@@H](C(=O)N[C@@H](CCCN=C(N)N)C(=O)N[C@@H](Cc2c[nH]c3ccccc23)C(=O)N[C@@H](Cc2c[nH]c3ccccc23)C(=O)N[C@@H](Cc2c[nH]c3ccccc23)C(=O)N[C@@H](CCCN=C(N)N)C(=O)N[C@@H](CCCN=C(N)N)C(N)=O)NC(=O)[C@H](Cc2ccccc2)NC(=O)[C@H](Cc2ccc(O)cc2)NC(=O)[C@H](CO)NC1=O [CASYFCRWWWRR] | 4 µM (≈ 6.87 µg/mL) | – | > 64 µM | – | ≥ 64 µM | 64 µM (≈ 110 µg/mL) | 8 µM (≈ 13.7 µg/mL) | 8 µM (≈ 13.7 µg/mL) | ≥ 64 µM | 4 µM (≈ 6.87 µg/mL) | ≥ 32 µM | 8 µM (≈ 13.7 µg/mL) | ≥ 32 µM | ≥ 64 µM | 4 µM (≈ 6.87 µg/mL) | ≥ 64 µM | – | – | ≥ 64 µM | – | –
6 | CC(C)[C@H](NC(=O)[C@H](CCCCN)NC(=O)[C@H](Cc1ccccc1)NC(=O)[C@@H](NC(=O)[C@@H](NC(=O)[C@@H](N)CCCCN)C(C)C)C(C)C)C(=O)N[C@@H](CCCCN)C(=O)N[C@@H](Cc1ccccc1)C(=O)N[C@@H](CCCCN)C(=O)N[C@@H](CCCCN)C(=O)N[C@@H](CCCCN)C(N)=O [KVVFKVKFKKK] | – | – | – | – | – | – | – | – | – | – | – | – | – | – | – | – | – | – | – | – | MIC [31]: 2.27 µM (≈ 3.13 µg/mL); MIC [32]: 4.53 µM and 2.27 µM and 3.21 µM; MIC [33]: 2.27 µM (≈ 3.13 µg/mL)
